Read-outs that look alike come from different tables or passages of the source.
Assays:
Type in all cases: biochemical
[1] = molecular target: T1, pyranose oxidase (Trametes versicolor, UniProt P79076)
T1 construct: made in house; host or cells: Coriolus versicolor ATCC 20155, the native producer (not recombinant); Enzyme was purified from disrupted mycelium by HPA-75, Sepharose 4B and Sephadex G-100 columns
Method: In this phase, 1.4 ml of 50 mM tris-hydrochloride buffer (pH 7.0), 0.1. ml of 250 mU enzyme solution and 0.5 ml of electron acceptor solutions having various concentrations as indicated in Table 2 were put into a cell with Thunberg tube. After saturating with dissolved oxygen, the reaction solution was mixed with 0.5 ml of a 0.1 M glucose solution. The change in absorbancy per minute from 30 minutes to 90 minutes after mixing was determined and the activities of the electron acceptors are expressed as relative activity.

[2] = molecular target: T1, pyranose oxidase; assay: biochemical
Method: Samples of the enzyme were dissolved in Tris buffer solutions have the pH indicated in Figure 2 to make up enzyme solutions having an activity of 250 mU/3.7 ml. Each of the enzyme solutions was put into a BIOXYGRAPH cell (trade name for a cell for measuring oxygen concentration made by Kyusui Kagaku Laboratory, Japan), and 50 µℓ of 1 M glucose were added. Measurements were made to determine the amount of absorbed oxygen.
Various inhibitors were studied in the same manner as that adopted in determination of the optimum pH. A reaction solution comprising 3.4 ml of 50 mM tris-hydrochloride buffer (pH 7.0), 0.1 ml of enzyme solutin containing 280 mU of pyranose oxidase and 0.2 ml of 18.5 mM inhibitor solution were put into a cell for measuring oxygen uptake and 50µℓof 1M glucose were added thereto and the sample incubated at 37°C.

[3] = molecular target: T1, pyranose oxidase; assay: Substrate specificity (relative activity on carbohydrates, peroxidase/4AA-phenol colour assay); settings: substrate: 0.1 ml of 100 mM carbohydrate liquor; enzyme 2.5 U/ml; percentage of the glucose reaction
Method: A 3.0 ml sample is first prepared comprising 1.0 ml of 0.1 M tris-hydrochloride buffer (pH 7.0), 0.2 ml of a colouring reagent prepared in advance as hereinafter described, 0.1 ml of 1 M glucose solution, 0.1 ml of a solution of the pyranose oxidase at a known concentration, 0.1 ml of 0.1 mM flavinadenine dinucleotide and 1.5 ml of distilled water. Said colouring reagent is prepared by adding 0.1 M tris-hydrochloride buffer (pH 7.0) containing 10 m mol ℓ4-aminoantipyrine (hereinafter referred to as 4AA) and 10 m mol/Zphenol, to an amount of a peroxidase which is sufficient to provide a peroxidase concentration in said buffer of 2000 U per 100 mI. The pyranose oxidase containing sample is incubated at 37°C and the increasing rate of the absorbancy at 500 nm is automatically measured on a spectrophotometer. If the molecular extinction coefficient of a quinoneimine pigment formed under these conditions is defined as 5.3 x 10^3, and one unit of enzymatic activity is defined as the amount of the enzyme that produces one µ mole of hydrogen peroxide per minute at a temperature of 37°C and at a pH of 7.0, then the enzymatic activity (A) of the pyranose oxidase in the sample can be defined by the following formula:- [formula] where A500 is the rate of increase of the absorbancy of the sample per minute at 500nm.
The same reactions as described in the assay method for enzymatic activity were repeated except that an enzyme concentration of 2.5 U/ml was used, and, as the substrate, 0.1 ml samples of various carbohydrate liquors indicated in Table I were used, each such liquor having a concentration of 100 mM. […] The specificity with respect to the latter two, in particular being a great deal lower than that of the known pyranose oxidase derived from microorganisms of the genus Polyporus (Table 1 of B.B.A. 167, 501-510 (1968)).

[4] = electron acceptor concentration 0.1 mM, pH 7.0, 250 mU enzyme solution, 0.1 M glucose solution
[5] = 0.2 ml of 18.5 mM inhibitor solution, 280 mU pyranose oxidase, pH 7.0, 37°C, 50 µl of 1M glucose

O=C1C(Cl)=CC(=Nc2ccc(O)cc2)C=C1Cl [2,6-Dichlorophenolindophenol]
Relative Activity (%) ([1]; electron acceptor concentration 0.04 mM, pH 7.0, 250 mU enzyme solution, 0.1 M glucose solution): 2.5%

Oc1cccc2cccnc12 [8-hydroxyquinoline]
Percent Inhibition (%) ([2]; pH 7): 13.3%

NC(=O)c1ccc[n+]([C@@H]2O[C@H](COP(=O)([O-])OP(=O)(O)OC[C@H]3O[C@@H](n4cnc5c(N)ncnc54)[C@H](OP(=O)(O)O)[C@@H]3O)[C@@H](O)[C@H]2O)c1 [Nicotinamide-adenine dinucleotide phosphate]
Relative Activity (%) [1, 4]: 0%

NC(=O)c1ccc[n+]([C@@H]2O[C@H](COP(=O)([O-])OP(=O)(O)OC[C@H]3O[C@@H](n4cnc5c(N)ncnc54)[C@H](O)[C@@H]3O)[C@@H](O)[C@H]2O)c1 [Nicotinamide-adenine dinucleotide]
Relative Activity (%) [1, 4]: 0%

O=O [Oxygen]
electron acceptor suitability (in words) [1]: optimum electron acceptor | Relative Activity (%) ([1]; pH 7): 100%

O=C(CO)[C@@H](O)[C@H](O)[C@H](O)CO [fructose]
Relative Activity (%) [3]: 0%

O=C[C@H](O)[C@@H](O)[C@@H](O)[C@H](O)CO [galactose]
Relative Activity (%) [3]: 0.9%

O=C(O)[C@H](O)[C@@H](O)[C@H](O)[C@H](O)CO [gluconic acid]
Relative Activity (%) [3]: 0%

N[C@H]1C(O)O[C@H](CO)[C@@H](O)[C@@H]1O (stereo partly shown) [glucosamine]
Relative Activity (%) [3]: 0%

OO [hydrogen peroxide]
inhibition at 18500 µM ([2]; pH 7, read-out: Percent Inhibition (%)): 20%

OC[C@H]1O[C@@H](O[C@H]2[C@H](O)[C@@H](O)C(O)O[C@@H]2CO)[C@H](O)[C@@H](O)[C@H]1O (stereo partly shown) [lactose]
Relative Activity (%) [3]: 0%

OC[C@H]1O[C@H](O[C@H]2[C@H](O)[C@@H](O)[C@H](O)O[C@@H]2CO)[C@H](O)[C@@H](O)[C@@H]1O [maltose]
Relative Activity (%) [3]: 0%

OC[C@@H](O)[C@@H](O)[C@H](O)[C@H](O)CO [mannitol]
Relative Activity (%) [3]: 0%

O=[N+]([O-])[O-].[Ag+] [silver nitrate]
Percent Inhibition (%) [2, 5]: 53.3%

O=C(CO)[C@H](O)[C@@H](O)[C@H](O)CO [sorbose]
Relative Activity (%) [3]: 3.4%

OC[C@H]1O[C@H](O[C@H]2O[C@H](CO)[C@@H](O)[C@H](O)[C@H]2O)[C@H](O)[C@@H](O)[C@@H]1O [trehalose]
Relative Activity (%) [3]: 0%

O=C[C@H](O)[C@@H](O)[C@H](O)CO [xylose]
Relative Activity (%) [3]: 2.6%

Nitroprusside-tetrazolium
Relative Activity (%) [1, 4]: 0%

cobalt sulfate
Percent Inhibition (%) [2, 5]: 13.3%

copper sulfate
Percent Inhibition (%) [2, 5]: 35.7%

magnesium sulfate
Percent Inhibition (%) [2, 5]: 0%

— patent publication EP0119332A1, “Novel pyranose oxidase processes for the production and use thereof and test compositions for use therein” (priority 1983, dated 1984)
